Measured values taken from patent US10161008B2, “miR-193a-3p and associated genes predict tumorigenesis and chemotherapy outcomes” (Genedia Biotech Co., Ltd., priority 2011, dated 2018).
Values after ≈ are worked out from the molar mass of the structure shown. Where two headings read alike, the source gives them in different places. Blank lines part the entries; values can stand above or below the compound they belong to.

Assays:
miR-193a-3p = assay: qRT-PCR of miR-193a-3p after demethylation in QGY-7703; assay type: cell-based, human; conditions: QGY-7703, treated 2 and 4 days
Source text: A. The physical map of the miR-193 gene region for DNA methylation analysis. (FIG. 3A discloses SEQ ID NO: 23) B. The methylation state of each of 27 CpGs in the mock treated (Mock) and treated for 2 days (2D) and 4 days (4D). C. The methylation frequency in B (unit: mC/Total) is plotted. D. The methylation state of the miR-193a gene determined by methylation-specific PCR is shown. Control: the unmethylated (U) and methylated (M) control DNA, respectively. E. Relative miR-193a-3p level determined by qRT-PCR was plotted. (*P<0.05, **P<0.01).
RNA: Total RNA was isolated using TRIzol reagent (Invitrogen, USA). Complementary DNA synthesis was performed using a primeScript RT reagent kit (Tiangen Biotech Co., Ltd., Beijing, China) for the SYBR® Green-based real-time PCR analysis in Rotor-Gene™ 6000 system, Qiagen, Germany) of SRSF2, E2F1, ABCC8, and CASP2S/L. The expression of miR-193a-3p (Ribobio, Guangzhou, China) was assessed using the 2-Ct method with RNA content normalized to the U6 RNA (Ribobio, Guangzhou, China) and to β-actin for other genes and plotted. The high-throughput, quantitative nuclease protection based analysis (Bourzac K. M. et al. (2011) J Biotechnol, 154, 68-75; Pechhold S. et al. (2009) Nat Biotechnol, 27, 1038-1042) on a customized array that are designed for the simultaneous determination of the expression of 42 human miRs and 5 housekeeping genes was determined. […]

[1] = tested on: SMMC-7721 tumor xenografts; assay: SMMC-7721 tumor growth in nude mice; assay type: in vivo
Procedure: After transfection with 50 nM miR-193a-3p or mock antagomirs (Ribobio, China) for 24 h, SMMC-7721 cells were collected and subcutaneously injected into the left and right flanks (1.25×10^6 cells/point) of each nude mouse (10 total), respectively. On day 12 after cell injection, 5 mice received 5-FU (75 mg/kg mouse body weight) intraperitoneal and then twice again in 1 week. The remaining 5 mice received phosphate-buffered saline (PBS) as a mock treatment control. And at the same time, the right side of all mice tumor were intratumorally injected with miR-193a-3p antagomir and left side with mock antagomir (according to manufacture instruction, Ribobio). To monitor the tumor growth, the volume was measured with a Vernier caliper on days 12, 18, 25, and 32 and calculated as Volume=W^2×L×0.5 (W and L represent the largest and next largest tumor diameters [cm]) and then plotted. Mice were humanely sacrificed on day 32, and tumors were weighed and photographed. Immunostaining was performed for ki67, SFS2, and E2F1 expression in both tumors of mouse number 4 (mock treated) mouse number 6 (5-FU treated).

HepG2 cells = assay: MTT-based IC50 determination in HepG2; assay type: cell-based, human
Procedure: The log phase of cell culture was obtained in Dulbecco modified Eagle medium (Invitrogen) containing 10% calf serum and 1% streptomycin-penicillin at 37° C. in 5% CO2. The thiazolyl blue tetrazolium blue (MTT)-based cell proliferation assay was carried out as follows: 5×10^3 to 1×10^4 cells in triplicate were cultured into each well of a 96-well plate (in triplicate) for 72 h, followed by a 3-h 37° C. incubation after addition of 10 μL (5 mg/mL) MTT salt (Sigma, USA).
The relative OD 570-nm readings (mean and SD) in each drug-treated set and the no-drug mock sample were calculated (%) and plotted against the logarithm of the drug concentration. […] Sources of the drugs are as follows: 5-FU, Shanghai Xudong Haipu Pharmaceutical, China; gemcitabine, Jiangsu Hansen Pharmaceutical, China; epirubicin, Shenzhen Main Luck Pharmaceutical, China; irinotecan, Aventis Pharmaceutical, Germany; paclitaxel, Bristol-Myers Squibb, USA; mitomycin, Hisun Pharmaceutical, China); docetaxel, Jiangsu Hengrui Medicine, China; vinorelbine, Yangzhou Aosaikang Pharmaceutical, China; and cisplatin, Qilu Pharmaceutical Factory, China.

[2] = tested on: CASP2L and CASP2S mRNAs of caspase 2; assay: qRT-PCR of caspase 2 splice forms in SMMC-7721; assay type: cell-based, human; conditions: SMMC-7721, low dose 4 μg/mL, one day
Procedure: (§1) RNA: Total RNA was isolated using TRIzol reagent (Invitrogen, USA). Complementary DNA synthesis was performed using a primeScript RT reagent kit (Tiangen Biotech Co., Ltd., Beijing, China) for the SYBR® Green-based real-time PCR analysis in Rotor-Gene™ 6000 system, Qiagen, Germany) of SRSF2, E2F1, ABCC8, and CASP2S/L. The expression of miR-193a-3p (Ribobio, Guangzhou, China) was assessed using the 2-Ct method with RNA content normalized to the U6 RNA (Ribobio, Guangzhou, China) and to β-actin for other genes and plotted. The high-throughput, quantitative nuclease protection based analysis (Bourzac K. M. et al. (2011) J Biotechnol, 154, 68-75; Pechhold S. et al. (2009) Nat Biotechnol, 27, 1038-1042) on a customized array that are designed for the simultaneous determination of the expression of 42 human miRs and 5 housekeeping genes was determined. Only miR-193a-3p expression was shown.
(§2) In light of all the known so far, this ratio is very likely to be most robust indicator to 5-FU resistance of HCC. To determine the 5-FU impact in this system, this example treated both cell lines by 4 μg/mL (a low dose) and 300 μg/mL (a high dose) for one day, respectively. […] As expected, both RNA and protein of SRSF2 were elevated by a larger margin than E2F1 in both QGY-7703 and SMMC-7721 (FIGS. 8B, C and F). […]

[3] = tested on: CASP2L and CASP2S mRNAs of caspase 2; assay: qRT-PCR of caspase 2 splice forms in QGY-7703; assay type: cell-based, human; conditions: QGY-7703, low dose 4 μg/mL, one day
Procedure: as §1, §2

QGY-7703 cells = assay: MTT-based IC50 determination in QGY-7703; assay type: cell-based, human; conditions: for IC50: Homo sapiens
Procedure: (§3) The log phase of cell culture was obtained in Dulbecco modified Eagle medium (Invitrogen) containing 10% calf serum and 1% streptomycin-penicillin at 37° C. in 5% CO2. The thiazolyl blue tetrazolium […] cell proliferation assay was carried out as follows: 5×10^3 to 1×10^4 cells in triplicate were cultured into each well of a 96-well plate (in triplicate) for 72 h, followed by a 3-h 37° C. incubation after addition of 10 μL (5 mg/mL) MTT salt (Sigma, USA). The OD 570-nm reading was obtained; the mean and SD of the triplicate experiments were calculated and plotted (Fei Q. et al. (2008) Acta Biochim Biophys Sin (Shanghai), 40, 466-477).
(§4) The relative OD 570-nm readings (mean and SD) in each drug-treated set and the no-drug mock sample were calculated (%) and plotted against the logarithm of the drug concentration. The linear regression parameters were determined for each curve and the IC50 extrapolated (Andrisano V. et al. (2001) J Chromatogr B Biomed Sci Appl, 753, 375-383). Sources of the drugs are as follows: 5-FU, Shanghai Xudong Haipu Pharmaceutical, China; gemcitabine, Jiangsu Hansen Pharmaceutical, China; epirubicin, Shenzhen Main Luck Pharmaceutical, China; irinotecan, Aventis Pharmaceutical, Germany; paclitaxel, Bristol-Myers Squibb, USA; mitomycin, Hisun Pharmaceutical, China); docetaxel, Jiangsu Hengrui Medicine, China; vinorelbine, Yangzhou Aosaikang Pharmaceutical, China; and cisplatin, Qilu Pharmaceutical Factory, China.

SMMC-7721 cells = assay: MTT-based IC50 determination in SMMC-7721; assay type: cell-based; conditions: Homo sapiens
Procedure: as §3, §4

[4] = tested on: Bcap-37 versus ZR-75-30 breast cancer cells; assay: IC50 screen of breast cancer cell lines; assay type: cell-based, human; conditions: Bcap-37 vs ZR-75-30
Procedure: The log phase of cell culture was obtained in Dulbecco modified Eagle medium (Invitrogen) containing 10% calf serum and 1% streptomycin-penicillin at 37° C. in 5% CO2. The thiazolyl blue tetrazolium blue (MTT)-based cell proliferation assay was carried out as follows: 5×10^3 to 1×10^4 cells in triplicate were cultured into each well of a 96-well plate (in triplicate) for 72 h, followed by a 3-h 37° C. incubation after addition of 10 μL (5 mg/mL) MTT salt (Sigma, USA). The OD 570-nm reading was obtained; the mean and SD of the triplicate experiments were calculated and plotted (Fei Q. et al. (2008) Acta Biochim Biophys Sin (Shanghai), 40, 466-477).
The relative OD 570-nm readings (mean and SD) in each drug-treated set and the no-drug mock sample were calculated (%) and plotted against the logarithm of the drug concentration. The linear regression parameters were determined for each curve and the IC50 extrapolated (Andrisano V. et al. (2001) J Chromatogr B Biomed Sci Appl, 753, 375-383). […]

[5] = antagomir treated SMMC-7721, 5-FU 75 mg/kg intraperitoneal, day 32
[6] = mock-transfected SMMC-7721, 5-FU 75 mg/kg intraperitoneal, day 32

SMILES: Nc1ncn([C@H]2C[C@H](O)[C@@H](CO)O2)c(=O)n1 [5-Aza-2′-deoxycytidine]
steady state level of miR-193a-3p (miR-193a-3p): raised the steady state level of miR-193a-3p

IC50 of HepG2 lower than SMMC-7721 (HepG2 cells; HepG2 vs SMMC-7721): 27.3 fold | IC50 (HepG2 cells; Homo sapiens, HepG2, 72 h, MTT, read-out: IC50 to 5-FU): 1.45 µg/mL (≈ 11.1 µM) | IC50 of QGY-7703 lower than that of SMMC-7721 (QGY-7703 cells; QGY-7703 vs SMMC-7721): approximately 105.2 fold | IC50 (SMMC-7721 cells; SMMC-7721, 72 h, MTT, read-out: IC50 to 5-FU): 41 µg/mL (≈ 315 µM) | IC50 (SMMC-7721 cells; SMMC-7721, miR-193a-3p antagomir-transfected SMMC-7721, read-out: 5-FU IC50): 13.4 µg/mL (≈ 103 µM) | Bcap-37 more resistant than ZR-75-30 (relative IC50) [4]: 69.0 fold
SMILES: O=c1[nH]cc(F)c(=O)[nH]1 [5-FU, 5-fluorouracil]
tumor volume [1, 5]: 0.29 cm^3 | tumor weight [1, 5]: 0.37 g | tumor volume ([1]; mock-transfected SMMC-7721, 5-FU 75 mg/kg intraperitoneal, day 25): 0.45 cm^3 | tumor volume [1, 6]: 0.89 cm^3 | tumor weight [1, 6]: 0.82 g | CASP2L RNA, fold of the untreated level [2]: 7.38 fold | CASP2S RNA, fold of the untreated level [2]: 1.97 fold | CASP2L RNA, fold of the untreated level [3]: 14.62 fold | CASP2S RNA, fold of the untreated level [3]: 1.46 fold | IC50 (QGY-7703 cells; QGY-7703, 72 h, MTT, read-out: IC50 to 5-FU): 0.39 µg/mL (≈ 3 µM) | IC50 (QGY-7703 cells; QGY-7703, SRSF2 siRNA-transfected QGY-7703, read-out: IC50 of 5-FU): 2.22 µg/mL (≈ 17.1 µM) | IC50 (QGY-7703 cells; QGY-7703, miR-193a-3p mimic-transfected QGY-7703, read-out: 5-FU IC50): 5.29 µg/mL (≈ 40.7 µM) | IC50 (QGY-7703 cells; QGY-7703, mock mimic-transfected QGY-7703, read-out: 5-FU IC50): 0.72 µg/mL (≈ 5.54 µM) | IC50 (QGY-7703 cells; QGY-7703, mock siRNA-transfected QGY-7703, read-out: IC50 of 5-FU): 0.68 µg/mL (≈ 5.23 µM) | IC50 (SMMC-7721 cells; SMMC-7721, mock-transfected SMMC-7721, read-out: 5-FU IC50): 46.7 µg/mL (≈ 359 µM)
